In US8722849B2, “Polypeptides” (Novo Nordisk A/S, priority 2011, dated 2014):
≈ marks a conversion by molar mass, not a printed value. Read-outs that look alike come from different tables or passages of the source. Starred links: 1 amine or outer side, 2 acyl side, 3 side chain; linkers in the order of their positions; H or OH if unused. Positions of bridges follow the written chain, without caps; N, C: chain ends. Residues, ends and D or L forms follow the SMILES beside them. Groups on a side chain read outwards from the residue. *: point of attachment. C20 diacid = O=C(O)CCCCCCCCCCCCCCCCCCC(=O)*; C18 diacid = O=C(O)CCCCCCCCCCCCCCCCC(=O)*; γGlu = O=C(O)[C@H](CCC(=O)[*:2])N[*:1]

Experiments:
[1] = Assay (III) ThT fibrillation assay for physical stability; assay type: physicochemical; conditions: ThT fibrillation assay
How it was run: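 Freshly prepared formulations, pH-adjusted, with 1 μM ThT; four or eight replicates incubated at 37 °C under 960 rpm orbital shaking. Fluorescence (ex 444/em 485 nm) read every 20 min; […]. Peptide concentration measured by RP-HPLC before and after the run.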

[2] = molecular target: T1, human amylin receptor (amylin 3(a) receptor: human calcitonin receptor + RAMP-3) (Homo sapiens, UniProt O60896+P30988); assay: Assay (II)a functional CRE-luciferase assay, human amylin receptor; assay type: cell-based
T1 construct: expressed in transfected cells; host or cells: BHK570
T1 sequence (P30988 25-474): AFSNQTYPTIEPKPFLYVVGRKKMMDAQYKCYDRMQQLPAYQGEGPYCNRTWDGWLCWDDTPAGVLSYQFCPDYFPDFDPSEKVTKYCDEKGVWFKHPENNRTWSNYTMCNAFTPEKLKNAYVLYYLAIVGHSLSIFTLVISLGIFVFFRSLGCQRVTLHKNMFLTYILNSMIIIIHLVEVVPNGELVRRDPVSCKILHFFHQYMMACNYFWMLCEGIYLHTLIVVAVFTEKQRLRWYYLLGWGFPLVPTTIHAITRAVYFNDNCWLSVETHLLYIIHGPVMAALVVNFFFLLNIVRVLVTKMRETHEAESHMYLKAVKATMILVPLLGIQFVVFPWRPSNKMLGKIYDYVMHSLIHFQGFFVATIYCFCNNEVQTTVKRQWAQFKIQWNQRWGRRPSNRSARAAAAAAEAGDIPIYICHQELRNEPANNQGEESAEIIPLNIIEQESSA
T1 sequence (O60896 24-148 partner): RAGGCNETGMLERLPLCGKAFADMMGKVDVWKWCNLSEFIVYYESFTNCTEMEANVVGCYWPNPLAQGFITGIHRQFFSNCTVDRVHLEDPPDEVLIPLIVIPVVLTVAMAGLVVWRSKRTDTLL

[3] = molecular target: T2, human calcitonin receptor (Homo sapiens, UniProt P30988); assay: Assay (II)a functional CRE-luciferase assay, human calcitonin receptor; assay type: cell-based
T2 construct: expressed in transfected cells; host or cells: BHK570
T2 sequence (P30988 25-474): T1 sequence (P30988 25-474)

[4] = Assay (IV) determination of solubility; assay type: physicochemical
How it was run: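 Polypeptide in water (~500 nmol/ml stock) was mixed 1:1 with 100 mM buffers from pH 3.0 to 8.0 (glycylglycine pH 3.0–5.0; bistrispropane pH 6.0–8.0). After 18 hours at room temperature, samples were centrifuged and the polypeptide remaining in solution was quantified by HPLC.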

[5] = Table 2, BHK amylin 3(a)-receptor/CRE-luc cells
[6] = Table 7, human calcitonin (CTa) receptor
[7] = bistrispropane buffer, pH 6, pH 6.0, read-out: Solubility pH 6.0
[8] = bistrispropane buffer, pH 6.5, pH 6.5, read-out: Solubility pH 6.5
[9] = bistrispropane buffer, pH 7, pH 7.0, 18 hours at room temperature, Table 3, read-out: Solubility pH 7.0
[10] = bistrispropane buffer, pH 7, pH 7.0, read-out: Solubility pH 7.0
[11] = bistrispropane buffer, pH 7.5, pH 7.5, read-out: Solubility pH 7.5
[12] = bistrispropane buffer, pH 8, pH 8.0, read-out: Solubility pH 8.0
[13] = glycylglycine buffer, pH 3, pH 3.0, read-out: Solubility pH 3.0
[14] = glycylglycine buffer, pH 4, pH 4.0, 18 hours at room temperature, Table 2, read-out: Solubility pH 4.0
[15] = glycylglycine buffer, pH 4, pH 4.0, read-out: Solubility pH 4.0
[16] = glycylglycine buffer, pH 5, pH 5.0, read-out: Solubility pH 5.0

Row | Structure (SMILES) | ThT pH 4.0 lag time (h) [1] [h] | EC50 [2, 5] [nM] | EC50 [3, 6] [nM] | solubility at 18 h [4, 7] [µM] | solubility at 18 h [4, 8] [µM] | solubility at 18 h [4, 9] [µM] | solubility at 18 h [4, 10] [µM] | solubility at 18 h [4, 11] [µM] | solubility at 18 h [4, 12] [µM] | solubility at 18 h [4, 13] [µM] | solubility at 18 h [4, 14] [µM] | solubility at 18 h [4, 15] [µM] | solubility at 18 h [4, 16] [µM] | ThT pH 4.0 lag time [1] [h] | EC50 ([2]; Table 11) [nM] | EC50 ([3]; Table 11, read-out: CTa receptor human EC50) [nM]
1 | CC[C@H](C)[C@H](NC(=O)[C@@H]1CCCN1C(=O)CNC(=O)[C@H](Cc1ccccc1)NC(=O)[C@H](CC(N)=O)NC(=O)[C@H](CC(N)=O)NC(=O)[C@H](CO)NC(=O)[C@H](CO)NC(=O)[C@H](Cc1c[nH]cn1)NC(=O)[C@H](Cc1c[nH]cn1)NC(=O)[C@H](CC(C)C)NC(=O)[C@H](Cc1ccccc1)NC(=O)[C@H](CCC(=O)O)NC(=O)[C@H](C)NC(=O)[C@H](CC(C)C)NC(=O)[C@H](CCCNC(=N)N)NC(=O)[C@H](CCC(N)=O)NC(=O)[C@@H](NC(=O)[C@H](C)NC(=O)[C@@H]1CSSC[C@H](NC(=O)[C@H](Cc2c[nH]cn2)NC(=O)CNC(=O)CC[C@H](NC(=O)CCCCCCCCCCCCCCCCCCC(=O)O)C(=O)O)C(=O)N[C@@H](CC(N)=O)C(=O)N[C@@H]([C@@H](C)O)C(=O)N[C@@H](C)C(=O)N[C@@H]([C@@H](C)O)C(=O)N1)[C@@H](C)O)C(=O)N[C@@H](CC(C)C)C(=O)N1CCC[C@H]1C(=O)N1CCC[C@H]1C(=O)N[C@H](C(=O)N[C@@H](CC(N)=O)C(=O)N[C@H](C(=O)NCC(=O)N[C@@H](CO)C(=O)N[C@@H](CC(N)=O)C(=O)N[C@H](C(=O)N1CCC[C@H]1C(N)=O)[C@@H](C)O)C(C)C)[C@@H](C)O [Example 92, N-alpha-[(S)-4-Carboxy-4-(19-carboxynonadecanoylamino)butyryl]-Gly-[His1,Glu14,His17,Pro37]-pramlintide] ({C20 diacid-γGlu}-GHCNTATCATQRLAEFLHHSSNNFGPILPPTNVGSNTP-NH2; disulfide 3-8 (inferred); C-terminus assumed) | 15.3 | 0.052 | 0.049 | > 200 | > 200 | > 200 | > 200 | > 200 | > 200 | > 200 | > 200 | > 200 | > 200 | – | – | –
2 | CC[C@H](C)[C@H](NC(=O)[C@@H]1CCCN1C(=O)CNC(=O)[C@H](Cc1ccccc1)NC(=O)[C@H](CC(N)=O)NC(=O)[C@H](CC(N)=O)NC(=O)[C@H](CO)NC(=O)[C@H](CO)NC(=O)[C@H](Cc1c[nH]cn1)NC(=O)[C@H](Cc1c[nH]cn1)NC(=O)[C@H](CC(C)C)NC(=O)[C@H](Cc1ccccc1)NC(=O)[C@H](CCC(=O)O)NC(=O)[C@H](C)NC(=O)[C@H](CC(C)C)NC(=O)[C@H](CCCNC(=N)N)NC(=O)[C@H](CCC(N)=O)NC(=O)[C@@H](NC(=O)[C@H](C)NC(=O)[C@@H]1CSSC[C@H](NC(=O)[C@@H](N)CCCCNC(=O)CC[C@H](NC(=O)CCCCCCCCCCCCCCCCC(=O)O)C(=O)O)C(=O)N[C@@H](CC(N)=O)C(=O)N[C@@H]([C@@H](C)O)C(=O)N[C@@H](C)C(=O)N[C@@H]([C@@H](C)O)C(=O)N1)[C@@H](C)O)C(=O)N[C@@H](CC(C)C)C(=O)N1CCC[C@H]1C(=O)N1CCC[C@H]1C(=O)N[C@H](C(=O)N[C@@H](CC(N)=O)C(=O)N[C@H](C(=O)NCC(=O)N[C@@H](CO)C(=O)N[C@@H](Cc1c[nH]cn1)C(=O)N[C@H](C(=O)N[C@@H](Cc1ccc(O)cc1)C(N)=O)[C@@H](C)O)C(C)C)[C@@H](C)O [Example 94, N-epsilon1-[(S)-4-Carboxy-4-(17-carboxyheptadecanoylamino)butyryl]-[Glu14,His17,His35]-pramlintide] (H-K([γGlu-C18 diacid])CNTATCATQRLAEFLHHSSNNFGPILPPTNVGSHTY-NH2; disulfide 2-7 (inferred); N-terminus assumed) | 11.3 | 0.119 | 0.286 | > 200 | > 200 | 138 (≈ 614 µg/mL) | 138 (≈ 614 µg/mL) | > 200 | > 200 | > 200 | > 200 | > 200 | > 200 | – | – | –
3 | CC[C@H](C)[C@H](NC(=O)[C@@H]1CCCN1C(=O)CNC(=O)[C@H](Cc1ccccc1)NC(=O)[C@H](CC(N)=O)NC(=O)[C@H](CC(N)=O)NC(=O)[C@H](CO)NC(=O)[C@H](CO)NC(=O)[C@H](Cc1c[nH]cn1)NC(=O)[C@H](Cc1c[nH]cn1)NC(=O)[C@H](CC(C)C)NC(=O)[C@H](Cc1ccccc1)NC(=O)[C@H](CCC(=O)O)NC(=O)[C@H](C)NC(=O)[C@H](CC(C)C)NC(=O)[C@H](CCCNC(=N)N)NC(=O)[C@H](CCC(N)=O)NC(=O)[C@@H](NC(=O)[C@H](C)NC(=O)[C@@H]1CSSC[C@H](NC(=O)[C@H](CCCNC(=N)N)NC(=O)CC[C@H](NC(=O)CCCCCCCCCCCCCCCCCCC(=O)O)C(=O)O)C(=O)N[C@@H](CC(N)=O)C(=O)N[C@@H]([C@@H](C)O)C(=O)N[C@@H](C)C(=O)N[C@@H]([C@@H](C)O)C(=O)N1)[C@@H](C)O)C(=O)N[C@@H](CC(C)C)C(=O)N1CCC[C@H]1C(=O)N1CCC[C@H]1C(=O)N[C@H](C(=O)N[C@@H](CC(N)=O)C(=O)N[C@H](C(=O)NCC(=O)N[C@@H](CO)C(=O)N[C@@H](Cc1c[nH]cn1)C(=O)N[C@H](C(=O)N[C@@H](Cc1ccc(O)cc1)C(N)=O)[C@@H](C)O)C(C)C)[C@@H](C)O [Example 95, N-alpha-[(S)-4-Carboxy-4-(19-carboxynonadecanoylamino)butyryl]-[Arg1,Glu14,His17,His35]-pramlintide] ({C20 diacid-γGlu}-RCNTATCATQRLAEFLHHSSNNFGPILPPTNVGSHTY-NH2; disulfide 2-7 (inferred)) | >45 | 0.082 | 0.175 | > 200 | 16 (≈ 72.1 µg/mL) | – | 2 (≈ 9.01 µg/mL) | 11 (≈ 49.6 µg/mL) | 51 (≈ 230 µg/mL) | > 200 | > 200 | > 200 | > 200 | >45 | – | –
4 | CC[C@H](C)[C@H](NC(=O)[C@@H]1CCCN1C(=O)CNC(=O)[C@H](Cc1ccccc1)NC(=O)[C@H](CC(N)=O)NC(=O)[C@H](CC(N)=O)NC(=O)[C@H](CO)NC(=O)[C@H](CO)NC(=O)[C@H](Cc1c[nH]cn1)NC(=O)[C@@H](NC(=O)[C@H](CC(C)C)NC(=O)[C@H](Cc1ccccc1)NC(=O)[C@H](CC(N)=O)NC(=O)[C@H](C)NC(=O)[C@H](CC(C)C)NC(=O)[C@H](CCCNC(=N)N)NC(=O)[C@H](CCC(N)=O)NC(=O)[C@@H](NC(=O)[C@H](C)NC(=O)[C@@H]1CSSC[C@H](NC(=O)[C@H](CCCNC(=N)N)NC(=O)CC[C@H](NC(=O)CCCCCCCCCCCCCCCCCCC(=O)O)C(=O)O)C(=O)N[C@@H](CC(N)=O)C(=O)N[C@@H]([C@@H](C)O)C(=O)N[C@@H](C)C(=O)N[C@@H]([C@@H](C)O)C(=O)N1)[C@@H](C)O)C(C)C)C(=O)N[C@@H](CC(C)C)C(=O)N1CCC[C@H]1C(=O)N1CCC[C@H]1C(=O)N[C@H](C(=O)N[C@@H](CC(N)=O)C(=O)N[C@H](C(=O)NCC(=O)N[C@@H](CO)C(=O)N[C@@H](CC(N)=O)C(=O)N[C@H](C(=O)N1CCC[C@H]1C(N)=O)[C@@H](C)O)C(C)C)[C@@H](C)O [Example 97] ({C20 diacid-γGlu}-RCNTATCATQRLANFLVHSSNNFGPILPPTNVGSNTP-NH2; disulfide 2-7 (inferred); C-terminus assumed) | 1.7 | – | – | > 200 | > 200 | – | > 200 | > 200 | > 200 | > 200 | – | > 200 | > 200 | – | 0.034 | 0.0385
